From patent US5039446A, “Liquid detergent with stabilized enzyme” (Genencor International, Inc., priority 1990, dated 1991)
Like-named read-outs stand apart in the source and are kept apart here.

What was measured:
[1] = biological target: subtilisin; conditions: inhibitor of subtilisin, read-out: inhibition constant (KI), cited from earlier work
[2] = test system: subtilisin; test: Example 1: incubation of subtilisin with or without PBA at pH 7.5 and 37 degrees, activity measured after 1:500 dilution (succinyl-L-Ala-L-Ala-L-Pro-L-Phe-p-nitroanilide hydrolysis, 410 nm); type: biochemical; conditions: pH 7.5, 37 degrees celsius, even in the presence of 10 mm EDTA
Procedure: Enzyme activity was measured after a 1:500 dilution by following the hydrolysis of the substrate succinyl-L-Ala-L-Ala-L-Pro-L-Phe-P-nitroanilide. The reaction was monitored by following the release of p-nitroaniline spectrophotometrically at 410 nm. One unit of activity is defined as the amount of enzyme that produces A410/min of 1.0 at 25'C. in 0.1M Tris pH 8.6, […] substrate.

| Structure (SMILES) | Ki [1] [µM] | Ki ([1]; listed as Leupeptin) [µM] | Ki ([1]; listed as Phenyl boronic acid) [µM] | stabilization of subtilisin (in words) [2] |
| --- | --- | --- | --- | --- |
| CCCCB(O)O [butane boronic acid] | 7200 |  |  |  |
| CC(=O)N[C@@H](CC(C)C)C(=O)N[C@@H](CC(C)C)C(=O)N[C@H](C=O)CCCNC(=N)N [leupeptin] | 160 | 230 |  |  |
| OB(O)c1ccccc1 [phenylboronic acid] | 230 |  | 160 | very effective agent for stabilization of subtilisin |
